Paper PMC6881072, “The repositioning of epigenetic probes/inhibitors identifies new anti-schistosomal lead compounds and chemotherapeutic targets” (PLoS Neglected Tropical Diseases, 2019)
“Also recorded” adds a separate entry of the source. Read-outs that look alike come from different tables or passages of the source.

Assays:
S. mansoni schistosomula = assay: In vitro schistosomula screening (Roboworm platform), phenotype and motility; type: cell-based, Schistosoma mansoni; settings: for hit / activity against schistosomula, single-point screen: hit cut-offs phenotype -0.15, motility -0.35; for EC50: Schistosoma mansoni
Experimental: Briefly, 384-well tissue culture plates (Perkin Elmer, cat 6007460), containing 20 μl of Basch medium, were wet-stamped using a Biomek NX^P liquid handling platform (Beckman Coulter, UK) with negative (0.625% dimethyl sulfoxide, DMSO) and positive controls (AUR and PZQ at 10 μM final concentration in 0.625% DMSO) as well as 37 SGC compounds (at 10 μM final concentration in 0.625% DMSO). […] To each pre-loaded well (single concentration or titration screens), a total of 100–120 mechanically transformed schistosomula (in 60 μl) were deposited via a WellMate (Thermo Scientific, UK). Schistosomula/compound co-cultures (80 μl in total) were then incubated at 37°C for 72 h in a humidified atmosphere containing 5% CO2. At 72 h, tissue culture plates (containing schistosomula/compound co-cultures) were imaged under the same conditions (37°C in a humidified atmosphere containing 5% CO2) using an ImageXpressXL high content imager (Molecular Devices, UK) with subsequent images processed for phenotype and motility as previously reported and successfully implemented by us at Aberystwyth University. Single point schistosomula screens (10 μM) were repeated two or three times whereas dose response titrations were performed once. Zˊ values obtained from all schistosomula screens ranged from 0.27–0.48 (mean = 0.40) for phenotype and 0.41–0.56 (mean = 0.48) for motility.

[1] = HepG2 cell cytotoxicity, MTT assay; type: cell-based, Human; settings: human, read-out: CC50 (HepG2) (95% Confidence Intervals)
Experimental: Human Hepatocyte Carcinoma (HepG2) cells (Sigma Aldrich, UK) were utilized to assess SGC epigenetic probe cell cytotoxicity in the application of the MTT (3-(4,5-dimethylthiazol-2-yl)-2,5-diphenyltetrazolium bromide) assay. Briefly, cells were passaged at 70–80% confluence and seeded (20,000 cells/ 50 μL per well) in a 96-well, black-sided, clear-bottomed falcon plate (Fisher Scientific, UK) with the final plate column (8 wells) being treated as a blank (media only). Following a 24 h incubation (5% CO2, 37°C, humidified), HepG2 cells were then treated with 50 μL of pre-warmed media (37°C) containing SGC EPs/EIs at 200 μM to 0.02 μM (final concentration 100 μM, 10 μM, 1 μM, 0.1 μM and 0.01 μM). Three positive (1% Triton X-100) and negative (1% DMSO) control wells per plate were additionally included.
After addition of compounds, each plate was then incubated for a further 20 h before application of MTT for assessment of overt compound cytotoxicity using the MTT assay. The MTT assay was read using the POLARstar Omega (BMG LabTech, UK) plate reader at an absorbance of 570 nm. CC50s were calculated in GraphPad Prism.

[2] = tested on: adult male and female schistosome pairs; assay: In vitro adult schistosome screening (WHO/TDR motility, egg counts); type: cell-based, Schistosoma mansoni; settings: for EC50: Schistosoma mansoni, 72 h
Experimental: In vitro screening was replicated three times on different dates to account for any biological variation. Briefly three adult worm pairs/well (48-well tissue culture plate format) were placed into DMEM (Gibco, Paisley, UK) supplemented with 10% (v/v) FCS (Gibco, Paisley, UK), 1% (v/v) L-glutamine (Gibco, Paisley, UK) and an antibiotic mixture (150 Units/ml penicillin and 150 μg/ml streptomycin; Gibco, UK). DMSO (0.5% negative control), AUR (10 μM concentration in 0.5% DMSO; positive control) and two-fold titrations of SGC compounds (50 μM– 6.25 μM or 50 μM– 0.05 μM; in 0.5% DMSO max) were added, and together, these adult worm/compound co-cultures were incubated at 37°C for 72 h in a humidified atmosphere containing 5% CO2. Following compound incubation, WHO/TDR readouts of adult worm motility, abundance of H3K36me2 (LLY-507 and BAY-598 treated worms only) in histone extracts and egg counts/well were recorded at 72 h.

[3] = CC50 HepG2 / schistosomula motility EC50
[4] = CC50 HepG2 / schistosomula phenotype EC50
[5] = 72 h, read-out: SCHISTOSOMULA EC50 Motility
[6] = 72 h, read-out: SCHISTOSOMULA EC50 Phenotype
[7] = read-out: ADULT EC50 (95% Confidence Intervals) Females
[8] = read-out: ADULT EC50 (95% Confidence Intervals) Males
[9] = 72 h, two-fold titration 10 μM–0.625 μM, single replicate, approximate, read-out: SCHISTOSOMULA EC50 Motility
[10] = 72 h, two-fold titration 10 μM–0.625 μM, single replicate, approximate, read-out: SCHISTOSOMULA EC50 Phenotype
[11] = motility, adult females, read-out: ADULT EC50 (95% Confidence Intervals) Females
[12] = motility, adult males, read-out: ADULT EC50 (95% Confidence Intervals) Males

CCOC(=O)CCNc1cc(N2CCc3ccccc3CC2)nc(-c2cccnc2)n1 [GSKJ5]
hit / activity against schistosomula, single-point screen (S. mansoni schistosomula; 10 μM, 72 h): None of these chemotype controls demonstrated anti-schistosomula activity

Cc1sc2c(c1C)C(c1ccc(Cl)cc1)=N[C@@H](CC(=O)OC(C)(C)C)c1nnc(C)n1-2 [JQ1, [(S)-4-(4-Chloro-phenyl)-2,3,9-trimethyl-6H-1-thia-5,7,8,9a-tetraaza-cyclopenta[e]azulen-6-yl]-acetic acid tert-butyl este]
SELECTIVITY INDEX Schistosomula Motility (S. mansoni schistosomula; [3]): 5.53 | SELECTIVITY INDEX Schistosomula Phenotype (S. mansoni schistosomula; [4]): 3.56 | EC50 (S. mansoni schistosomula; [5]): 3.04 µM | EC50 (S. mansoni schistosomula; [6]): 4.72 µM | CC50 at 20 h [1]: 16.8 µM | SELECTIVITY INDEX Adult Females ([2]; CC50 HepG2 / adult female EC50): 0.73 | SELECTIVITY INDEX Adult Males ([2]; CC50 HepG2 / adult male EC50): 0.92 | EC50 [2, 7]: 22.8 µM | EC50 [2, 8]: 18.3 µM

CCCc1cc(C)[nH]c(=O)c1CNC(=O)c1cc(-c2ccc(N3CCN(C(C)C)CC3)nc2)cc2c1cnn2C(C)C [UNC1999, N-[(6-methyl-2-oxo-4-propyl-1,2-dihydropyridin-3-yl)methyl]-1-(propan-2-yl)-6-{6-[4-(propan-2-yl)piperazin-1-yl]pyridin-3-yl}-1H-indazole-4-carboxamide]
hit / activity against schistosomula, single-point screen (S. mansoni schistosomula; 10 μM, 72 h): are hits against schistosomula | SELECTIVITY INDEX Schistosomula Motility (S. mansoni schistosomula; [3]): 11.16 | SELECTIVITY INDEX Schistosomula Phenotype (S. mansoni schistosomula; [4]): 7.48 | EC50 (S. mansoni schistosomula; [9]): 2.82 µM | EC50 (S. mansoni schistosomula; [10]): 4.2 µM | CC50 at 20 h ([1]; HepG2 cells): 31.4 µM | SELECTIVITY INDEX Adult Females ([2]; CC50 HepG2 / adult female EC50): 1.95 | SELECTIVITY INDEX Adult Males ([2]; CC50 HepG2 / adult male EC50): 2.32 | EC50 [2, 11]: 16.1 µM | EC50 [2, 12]: 13.5 µM

O=C(/C=C/c1ccc(CN(CCO)CCc2c[nH]c3ccccc23)cc1)NO [LAQ824]
hit / activity against schistosomula, single-point screen (S. mansoni schistosomula; 10 μM, 72 h): hit | SELECTIVITY INDEX Schistosomula Motility (S. mansoni schistosomula; [3]): 6.40 | SELECTIVITY INDEX Schistosomula Phenotype (S. mansoni schistosomula; [4]): 7.04 | EC50 (S. mansoni schistosomula; [9]): 2.45 µM | EC50 (S. mansoni schistosomula; [10]): 2.22 µM | CC50 at 20 h ([1]; HepG2 cells): 15.6 µM | SELECTIVITY INDEX Adult Females ([2]; CC50 HepG2 / adult female EC50): 0.95 | SELECTIVITY INDEX Adult Males ([2]; CC50 HepG2 / adult male EC50): 0.63 | EC50 [2, 11]: 16.5 µM | EC50 [2, 12]: 25 µM

CCCc1cc(C)n(C)c(=O)c1CN(C)C(=O)c1cc(-c2ccc(N3CCN(C(C)C)CC3)nc2)cc2c1cnn2C(C)C [UNC2400]
hit / activity against schistosomula, single-point screen (S. mansoni schistosomula; 10 μM, 72 h): None of these chemotype controls demonstrated anti-schistosomula activity

COc1ccc(CCc2nc3cc(-c4c(C)noc4C)ccc3n2CC(C)N2CCOCC2)cc1Cl (stereo not drawn) [SGC-CBP30, 8-(3-chloro-4-methoxy-phenethyl)-4-(3,5-dimethyl-isoxazol-4-yl)-9-(2-(morpholin-4-yl)-propyl)-7,9-diaza-bicyclo[4.3.0]nona-1(6),2,4,7-tetraene]
hit / activity against schistosomula, single-point screen (S. mansoni schistosomula; 10 μM, 72 h): demonstrated activity against schistosomula | S[…] Schistosomula Motility (S. mansoni schistosomula; [3]): 10.03 | S[…] Schistosomula Phenotype (S. mansoni schistosomula; [4]): 15.69 | EC50 (S. mansoni schistosomula; [9]): 4.99 µM | EC50 (S. mansoni schistosomula; [10]): 3.19 µM | CC50 at 20 h ([1]; HepG2 cells): > 50 µM | S[…] Adult Females ([2]; CC50 HepG2 / adult female EC50): 1.6 | S[…] Adult Males ([2]; CC50 HepG2 / adult male EC50): 1.49 | EC50 [2, 11]: 31.2 µM | EC50 [2, 12]: 33.5 µM

CCn1cc(-c2cccc(C(F)(F)F)c2)c2sc(C(=N)NC3CCS(=O)(=O)CC3)cc2c1=O [I-BRD9, N-(1,1-dioxidotetrahydro-2H-thiopyran-4-yl)-5-ethyl-4-oxo-7-(3-(trifluoromethyl)phenyl)-4,5-dihydrothieno[3,2-c]pyridine-2-carboximidamide]
SELECTIVITY INDEX Schistosomula Motility (S. mansoni schistosomula; [3]): 7.61 | SELECTIVITY INDEX Schistosomula Phenotype (S. mansoni schistosomula; [4]): 24.44 | EC50 (S. mansoni schistosomula; [9]): 4.13 µM | EC50 (S. mansoni schistosomula; [10]): 1.29 µM | CC50 at 20 h ([1]; HepG2 cells): 31.4 µM | SELECTIVITY INDEX Adult Females ([2]; CC50 HepG2 / adult female EC50): 1.31 | SELECTIVITY INDEX Adult Males ([2]; CC50 HepG2 / adult male EC50): 1.10 | EC50 [2, 11]: 24 µM | EC50 [2, 12]: 28.5 µM

CCC(=O)N1CCOc2c(cc(-c3ccc(OC)c(OC)c3)cc2OC[C@H]2CCCN(C)C2)C1 [I-CBP112, 1-[7-(3,4-dimethoxyphenyl)-9-{[(3S)-1-methylpiperidin-3-yl]methoxy}-2,3,4,5-tetrahydro-1,4-benzoxazepin-4-yl]propan-1-one]
hit / activity against schistosomula, single-point screen (S. mansoni schistosomula; 10 μM, 72 h): did not

CCCS(=O)(=O)c1nc(NC2CC2)cc(-c2ccc3c(ccn3C3CC(C)(C)NC(C)(C)C3)c2)n1 [NVS-CECR2-1, N-cyclopropyl-2-propylsulfonyl-6-[1-(2,2,6,6-tetramethylpiperidin-4-yl)indol-5-yl]pyrimidin-4-amine]
schistosomula phenotype by microscopic assessment (S. mansoni schistosomula; 10 μM, 72 h): phenotypes comparable to auranofin | SELECTIVITY INDEX Schistosomula Motility (S. mansoni schistosomula; [3]): 3.60 | SELECTIVITY INDEX Schistosomula Phenotype (S. mansoni schistosomula; [4]): 4.98 | EC50 (S. mansoni schistosomula; [5]): 2.5 µM | EC50 (S. mansoni schistosomula; [6]): 1.81 µM | CC50 at 20 h [1]: 9.03 µM | SELECTIVITY INDEX Adult Females ([2]; CC50 HepG2 / adult female EC50): 1.73 | SELECTIVITY INDEX Adult Males ([2]; CC50 HepG2 / adult male EC50): 3.11 | EC50 [2, 7]: 5.21 µM | EC50 [2, 8]: 2.9 µM

CC(C)Oc1ccc(-c2c[nH]cc2CN(C)CCN)cc1 [MS023, 3-(((2-amino-ethyl)-methyl-amino)-methyl)-4-(4-(1-methyl-ethoxy)-phenyl)-1H-pyrrole]
SELECTIVITY INDEX Schistosomula Motility (S. mansoni schistosomula; [3]): 2.52 | SELECTIVITY INDEX Schistosomula Phenotype (S. mansoni schistosomula; [4]): 4.14 | EC50 (S. mansoni schistosomula; [9]): 6.45 µM | EC50 (S. mansoni schistosomula; [10]): 3.92 µM | CC50 at 20 h ([1]; HepG2 cells): 16.2 µM | SELECTIVITY INDEX Adult Females ([2]; CC50 HepG2 / adult female EC50): 0.62 | SELECTIVITY INDEX Adult Males ([2]; CC50 HepG2 / adult male EC50): 0.62 | EC50 [2, 11]: 26.3 µM | EC50 [2, 12]: 26.2 µM

Clc1cc2c(NC3CCCC3)nnc(-c3ccncc3)c2cc1Cl [A-196, 8,9-dichloro-N-cyclopentyl-5-(pyridin-4-yl)-3,4-diaza-bicyclo[4.4.0]deca-1(10),2,4,6,8-pentaen-2-amine]
SELECTIVITY INDEX Schistosomula Motility (S. mansoni schistosomula; [3]): 10.45 | SELECTIVITY INDEX Schistosomula Phenotype (S. mansoni schistosomula; [4]): 36.00 | EC50 (S. mansoni schistosomula; [9]): 4.78 µM | EC50 (S. mansoni schistosomula; [10]): 1.39 µM | CC50 at 20 h ([1]; HepG2 cells): > 50 µM | SELECTIVITY INDEX Adult Females ([2]; CC50 HepG2 / adult female EC50): 3.13 | SELECTIVITY INDEX Adult Males ([2]; CC50 HepG2 / adult male EC50): 2.24 | EC50 [2, 11]: 16 µM | EC50 [2, 12]: 22.3 µM

CCN(C(=O)CO)C1CN(C(=Nc2cccc(OC(F)F)c2)NC#N)N=C1c1ccccc1 (stereo not drawn) [BAY-369]
hit / activity against schistosomula, single-point screen (S. mansoni schistosomula; 10 μM, 72 h): None of these chemotype controls demonstrated anti-schistosomula activity; also recorded: is not

CC(=O)Nc1ccc(C(=O)Nc2ccccc2N)cc1 [CI-994]
hit / activity against schistosomula, single-point screen (S. mansoni schistosomula; 10 μM, 72 h): non-hit
